From PubChem BioAssay (NCI)
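Cultured in 96-well plates, cells were exposed to test compound for 48 hours across five concentrations. GI50 = concentration required for 50% inhibition of growth. TGI marks complete inhibition of growth.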 *1 amine or outer side, *2 acyl side, *3 side chain or, on linkers, in order; H or OH if unused. Where a SMILES comes first, the peptide text is derived from it. [ ]: non-standard residue; d: D form. ξ: configuration not given here. X21 = CC[C@@H](C)C(N[*:1])C(=O)[*:2]; ξR = N=C(N)NCCCC(N)C(=O)O; ξI = CCC(C)C(N)C(=O)O; ξL = CC(C)CC(N)C(=O)O; ξK = NCCCCC(N)C(=O)O; ξV = CC(C)C(N)C(=O)O; ξA = CC(N)C(=O)O

Tests used:
Test in all cases: growth of human tumour cells (NCI), 48 h
[1] = tested on: RXF 393 renal
[2] = tested on: K-562 leukemia
[3] = tested on: HL-60(TB) leukemia
[4] = tested on: LOX IMVI melanoma
[5] = tested on: T-47D breast
[6] = tested on: UACC-62 melanoma
[7] = tested on: MALME-3M melanoma
[8] = tested on: CAKI-1 renal
[9] = tested on: CCRF-CEM leukemia
[10] = tested on: OVCAR-4 ovarian

SMILES	GI50 [1] [µM]	TGI [1] [µM]	GI50 [2] [µM]	TGI [2] [µM]	GI50 [3] [µM]	TGI [3] [µM]	GI50 [4] [µM]	TGI [4] [µM]	GI50 [5] [µM]	TGI [5] [µM]	GI50 [6] [µM]	TGI [6] [µM]	GI50 [7] [µM]	TGI [7] [µM]	GI50 [8] [µM]	TGI [8] [µM]	GI50 [9] [µM]	TGI [9] [µM]	GI50 [10] [µM]	TGI [10] [µM]
COc1ccc(-c2csc(NC(=O)c3cc(O)c(O)c(O)c3)n2)cc1	7.31	> 33.3	4.5	> 33.3	8.28	23.9	6.57	> 33.3	5.19	22.6	5.87	> 33.3	11.1	> 33.3	2.61	> 33.3	1.55	17.6	7.27	> 33.3
CCOC(=O)Nc1nc2c(C)cccc2s1	> 100	> 100	34.7	> 100	29.9	> 100	49.7	> 100	47.4	> 100	36	> 100	56.3	> 100	45.7	> 100	54.8	> 100	43.2	> 100
CCC(C)C1NC(=O)C(CC(C)C)NC(=O)C(C)NC(=O)C(C(C)C)NC(=O)C(CCCCN)NC(=O)C(CC(C)C)NC(=O)C(C(C)C)NC(=O)[C@H](C)NC(=O)C(C(C)CC)NC(=O)C(CCCN=C(N)N)NC(=O)C(CCCCN)NC(=O)C(CCCN=C(N)N)NC(=O)C(CCCCN)NC(=O)C([C@H](C)CC)NC(=O)C(CCCCN)NC1=O (stereo partly drawn) (cyclo(A[ξV][ξL][ξK][ξV][ξA][ξL][ξI][ξK][X21][ξK][ξR][ξK][ξR][ξI]))	1.52	2.96	0.783	3.79	1.77	4.44	1.62	3.03	0.756	4.28	1.26	2.85	1.12	2.58	1.38	3.04	1.43	5.07	0.72	10.2
COc1ccc(/C=C/NC=O)cc1		> 100		> 100		> 100		> 100		> 100		> 100		> 100				> 100		> 100
O=C(Nc1ccccc1)Nc1cccc(Oc2nnc(Cl)c3ccccc23)c1	2.69	6.24	6.21	> 25	2.7	> 25	3.46	6.8	0.863	10.8	6.84	> 25	1.62	5.93	3.34	14.3	4.44	> 25	1.74	12.2
OCc1ccc(N(CCN2CCCC2)Cc2ccc(F)cc2)cc1Cl	23.3	67.1	16.2	40.4	25.1	64.8	15.6	31.5	19	49.2	13.9	29.1	22.3	40.2	4.15	19.4	23.8	91.5	11.1	> 100
Fc1ccc2[nH]cc(SSc3c[nH]c4ccc(F)cc34)c2c1	0.659	17	3.89	> 100	1.83	6.57	3.18	17.4	2.54	20.5	2.83	13.8	14.6	34	3.52	21.7	2.54	8.56	3.87	18.2
COc1cc(/C=C2\C(=O)Nc3cccc(Cl)c32)cc(OC)c1OC	8.79	36.9	29.2	> 100	11	> 100	> 100	> 100	> 100	> 100	> 100	> 100	> 100	> 100	> 100	> 100	0.0529	0.527	> 100	> 100
Cc1cc(N(CCCl)CCCl)ccc1/C=N/NC(=O)Cc1cc(=O)oc2cc(O)ccc12		44.3		66.1		33.5		26.7		56.9		13.2		27.7		26.3		46		> 100
CC(C)Nc1ncc2cc(Oc3ccc(F)cc3F)c(=O)n(C)c2n1	12.7	> 25	> 25	> 25	> 25	> 25	> 25	> 25	> 25	> 25	> 25	> 25	> 25	> 25	> 25	> 25	> 25	> 25	> 25	> 25
CC1(C)CC(Nc2ccc(Nc3ccccc3)cc2)CC(C)(C)N1		47.5		39.2		19.2		43.1		37.5		28.1		35.8		53.1		29.9		61.9
NC(=O)c1ccc2nc3c(n2c1)C(=O)C(=O)c1ccccc1-3	1.64	3.02	0.677	3.73	2.12	5.18	0.264	0.787	0.415	2.54	0.545	1.77	0.171	0.311	1.67	3.22	0.931	5.42	0.481	1.71
C=C1C(=O)O[C@H]2[C@H]1CC/C(Cn1cc(-c3cc(C)c(C)cc3C)nn1)=C\CC[C@@]1(C)O[C@@H]21	0.962	2.21	1.39	6.24	0.643	3.69	0.725	2.1	0.539	2.45	1.13	2.56	1.43	3	1.08	2.39	0.458	2.65	0.701	2.12
Cc1c(N=Cc2ccc(N(CCC#N)CCC#N)cc2)c(=O)n(-c2ccccc2)n1C		92.1		> 100		> 100		> 100		> 100		> 100		> 100		> 100		> 100		> 100
CC(C)c1ccc(NC(=S)NC(=O)c2ccccc2)cc1		44.9		> 100		32.3		31.2		77.2		30.7		69.8		55.5		49.6		55.2
Nc1nc(-c2cccc([N+](=O)[O-])c2)cc(-c2cc(-c3cccc([N+](=O)[O-])c3)nc(N)n2)n1		> 100		> 100		> 100		> 100		> 100		> 100		> 100		> 100				> 100
O=C(COc1cccc(/C=C2\CSc3ccccc3C2=O)c1)c1ccc(Cl)cc1	2.67	6.73			3.57	> 21	1.39	2.73	2.15	5.43	1.65	3.24	2.01	4.76	3.97	10.1	0.325		3.09	> 42.1
Nc1ncnc2c1cnn2Cc1ccc(Cl)cc1		> 100		> 100		> 100		> 100		> 100	> 100	> 100	> 100	> 100	31.8	> 100		> 100		> 100
Cc1cc(=O)oc2cc(OS(C)(=O)=O)ccc12		> 100		> 100		> 100		> 100		> 100		> 100		> 100		> 100		> 100		> 100
COc1ccc(-c2cc(=O)c3c(OC)c(OC)c(OC)c(OC)c3o2)c(OC)c1		99.7		> 100		> 100		34.8		59.5		33		> 100		81.9		> 100		94.4
C=CC1=C(C)C2=NC1=CC1=NC(=CC3=C(C)C4=C(O)C(C(=O)OC)C(=C5NC(=C2)C(C)C5CCC(=O)OC)C4=N3)C(CC)=C1C (stereo not drawn)		> 100		> 100		> 100		> 100		> 100		> 100		> 100		> 100		> 100		> 100
O=C(Nc1cccc(-n2cc(-c3ccncc3)c(-c3ccc(O)c(Cl)c3)n2)c1)Nc1cccc(C(F)(F)F)c1	1.19	4.05	2.69	> 100	2.83	7.49	2.11	5.87	1.97	7.3	2.28	5.5	1.79	6.45	1.87	5.84	2.12	7.92		
C=C1C[C@@]2(C)C(CC[C@]3(C)C2CC=C2C4CC(C)(C)C[C@@H](OC(=O)/C(C)=C\C)[C@]4(C(=O)O)CC[C@]23C)C(C)(C)C1=O (stereo partly drawn)	1.76	3.57	2.45	11.5	2.56	7.08			3.25	15.2	2.93	10.3	3.89	15.6	1.88	4.72	2.11	22.9	4.76	18.2
CCOC(=O)c1cc(C(=O)c2cc(OC)c(OC)c(OC)c2)n2ccccc12	0.07	0.707	0.0501	> 100	0.0586		0.133	> 100	1.14	> 100	0.0439	> 100	1.06	> 100	0.15	> 100	0.106	> 100		
COc1ccc2c(c1)/C(=N/OC(C)=O)c1c-2c(=O)[nH]c2ccccc12			11.3	28.7	1.83	4.88	14.8	29.4	3	27.2	16.6	30.4	13.2	29.8	11.5	25.6	4.09	23.6	4.88	21.3
COc1ccc2c(c1)/C(=C/c1cc(OC)c(OC)c(OC)c1)C(=O)N2C			1.12	> 46.5	1.46	5.28	2.32	11.8	2.59	6.45	2.37	> 24	2.87	> 29.2	2.41	> 27.4	2.21	7.04	4.66	> 77.5
COc1ccc2c(c1)C1(C(=O)N2)C(C#N)=C(c2ccccc2)Nc2c1c(-c1ccccc1)nn2-c1ccccc1 (stereo not drawn)	1.93	5.3	4.6	22.9	3.68	15.4	1.81	3.51	2.94	12.5	5.36	18.2	1.73	3.84			2.9	10.4	1.77	3.5
CNCCCNCCCN1C(=O)c2ccc3c4c(ccc(c24)C1=O)C(=O)N(CCCNCc1ccccc1OC)C3=O	1.89	5.71	0.408	2.9	2	7.09	1.52	9.75	1.25	4.1	1.52	3.51	0.633	1.96			0.465	4.53	0.642	2.04
